Source: patent US20230263164A1 (priority 2020, published 2023)
Counter-ions that a name gives are not always drawn. Like-named read-outs stand apart in the source and are kept apart here.

Experiments:
[1] = 90% H2O/D2O; for Percent Degradation: 31P NMR
[2] = not given; remark: listed apart in the source
corn plants = assay type: in vivo
physchem = details: buffer, t1/2 (days) of first step
[3] = assay type: physicochemical
people = details: cited from earlier work
lettuce plants = details: in vivo; cited from earlier work
radish = details: cited from earlier work
peas = details: in vivo; cited from earlier work
soybeans = test: Field trial: harvest yield of soybeans; assay type: in vivo; details: 2 kg (per acre), side dressing, vs plants not exposed
Description: All essential plant nutrients (N, P, K, and S) were applied in non-limiting amounts. Prior to planting soybeans, the fields were fertilized with 60 lb acre of P2O5, 80 lb per acre of K2O, and 20 lb per acre of sulfur. The soybean seeds were a 2.8-3.2 relative maturity planted at 120,000 to 140,000 seeds per acre. All field management were designed to effectively control weed and insect pests to optimize soybean growth and yield. The soybeans were planted and either 0, 0.5, 1.0, or 2.0 kg per acre of dibutyldithiophosphate was applied as a side dressing to the soybean plants. The dibutyldithiophosphate was dissolved in water and applied. The harvest weight was determined for each plot and corrected for slight differences in moisture content.

pea plants = test: Growth of peas exposed to dibutyldithiophosphate (pots, 88 days); assay type: in vivo
Method: Peas were planted and grown in 8.25 inch TEKU pots. The pots were packed finger tight with potting mix #4 from Beautiful Land Products. The pea seeds were planted approximately 1.5 inches deep. 25 seeds were planted per dosing of dibutyldithiophosphate potassium salt. After the seeds were planted into the soil the desired amount of dibutyldithiophosphate for 32 doses was added to 160 mL of tap water. After mixing well for 10 minutes, 5 mL of the dibutyldithiophosphate solution was then added to the top of each seed after it was planted in the soil. Soil was then used to cover the seed. After adding the salt, the plants were moved outside in full sunlight until harvest. The pea plants were watered daily. Peter's Professional B 20-20-20 water soluble fertilizer was used at 1 tablespoon per 3 gallons of tap water and 350 mL of this solution was added to each plant. Plants were fertilized on day 44, 51, 66, 73, and 81.
The pea plants were harvested after 88 days. The plant was harvested by cutting the above soil portion of the plant at the root-stem boundary. The above ground portion of the plant was weighed in its entirety. Next the pods were removed, counted and weighed separately from the rest of the plant. Statistical analysis was performed using IBM SPSS Statistics 25. Dunnett's 2-sided t-test was performed to determine significance. Data represented are mean±standard error with ** indicating α<0.05 and * indicating α<0.1.

[4] = 85° C., 90% H2O/D2O, only phosphoric acid observed
[5] = water buffered at pH 6.7, FIG. 4
[6] = hydrolysis, rate constants 25 to 85° C.
[7] = 20 mg per plant, potassium salt, 88 days

Question: With CCCCOP(=S)(S)OCCCC [Example 1, Dibutyldithiophosphate Ammonium Salt] as the compound, how does the “Rate of first-step of hydrolysis (85° C.)” value (85° C., 90% H2O/D2O) read?
Answer: 0.00096 h⁻¹

Question: What about the “Time to complete hydrolysis” value [4] of the same compound?
Answer: 180 days

Question: What about the “rate of hydrolysis, fold slower than the compound of Example 2” value (85° C., Table 2) of the same compound?
Answer: 3.5 ×

Question: What about the “rate of hydrolysis, fold slower than the dithiophosphate of Example 3” value (85° C., Table 2) of the same compound?
Answer: 7.4 ×

Question: What about the “rate of hydrolysis, fold slower than the dithiophosphate of Example 4” value (85° C., Table 2) of the same compound?
Answer: 1.4 ×

Question: What about the “Percent Degradation” value ([1]; 30 days, room temperature) of the same compound?
Answer: <3%

Question: What about the “release of H2S (rank among the dithiophosphates)” value [2, 5] of the same compound?
Answer: lowest release of H2S

Question: And the “increase in weight of corn plants” value (corn plants; 1 mg ammonium salt added to soil adjacent to seed, 4 weeks, vs plants grown without)?
Answer: 39%

Question: With S=P1(S)OCCO1 [Example 2] as the compound, how does the half-life (physchem) read?
Answer: 204 h

Question: With CC1COP(=S)([S-])O1.[K+] (stereo not drawn) [Example 3] as the compound, how does the half-life (physchem) read?
Answer: 98.4 h

Question: With CC(C)[C@@H]1CC[C@@H](C)C[C@H]1OP(=S)([S-])O[C@@H]1C[C@H](C)CC[C@H]1C(C)C.[K+] [Example 5] as the compound, how does the “release of H2S” value ([2]; pH 6.7) read?
Answer: released H2S

Question: Which half-life (physchem) does the source give for CCc1ccc(OP(=S)([S-])Oc2ccc(CC)cc2)cc1.[K+] [Example 6] here?
Answer: 93.6 h

Question: For CC(C)(C)OP(=S)(S)OC(C)(C)C [Example 8, di(tert-butanol)dithiophosphate Sodium Salt], which “Rate of first-step of hydrolysis (85° C.)” value (85° C., 90% H2O/D2O) is on record?
Answer: 13.2 h⁻¹

Question: And the “Time to complete hydrolysis” value [4]?
Answer: 0.0493 days

Question: And the “rate of hydrolysis, fold slower at room temperature than at 85° C.” value (room temperature vs 85° C.)?
Answer: 2,600 ×

Question: What about the “Rate of first-step of hydrolysis” value (room temperature, 90% H2O/D2O) of the same compound?
Answer: 0.0051 h⁻¹

Question: And the “Time to complete hydrolysis” value (room temperature, 90% H2O/D2O)?
Answer: 30 days

Question: And the “hydrolysis after 30 days” value ([1]; room temperature, 30 days)?
Answer: completely hydrolyzed

Question: What about the “Percent Degradation” value ([1]; 30 days, room temperature) of the same compound?
Answer: 100%

Question: And the percent degraded ([1]; day 12, room temperature)?
Answer: 62%

Question: And the percent degraded ([1]; day 20, room temperature)?
Answer: 88%

Question: What about the “ΔG^‡ (25° C.)” value ([3]; 25° C.) of the same compound?
Answer: 25.26 kcal/mol

Question: And the “−TΔS^‡ (25° C.)” value ([3]; 25° C.)?
Answer: -2.58 kcal/mol

Question: And the “ΔΔG^‡” value ([3]; 25° C. vs 85° C.)?
Answer: 0.526 kcal/mol

Question: And the “ΔG^‡ (85° C.)” value ([3]; 85° C.)?
Answer: 24.74 kcal/mol

Question: And the “sign of ΔS^‡ (in words)” value ([3]; hydrolysis)?
Answer: positive

Question: And the “ΔH^‡” value [3, 6]?
Answer: 27.84 kcal/mol

Question: And the “ΔS^‡” value [3, 6]?
Answer: 36.3 J/mol · K

Question: And the “release of H2S (rank among the dithiophosphates)” value [2, 5]?
Answer: highest release of H2S

Question: With CCCSP(=S)(S)SCCC [Example 10] as the compound, how does the half-life (physchem) read?
Answer: 3.12 h

Question: For S=P1(S)SCCS1 [Example 11], which half-life (physchem) is on record?
Answer: 2.04 h

Question: With S=P1(S)SCCCS1 [Example 12] as the compound, how does the half-life (physchem) read?
Answer: 36 h

Question: Which half-life (physchem) does the source give for S=P(S)(Sc1ccccc1)Sc1ccccc1 [Example 13] here?
Answer: 31.2 h

Question: For S=P1(S)OCCS1 (stereo not drawn) [Example 14], which “release of H2S (rank among the dithiophosphates)” value ([2]; pH 6.7) is on record?
Answer: highest release of H2S

Question: With S [Example H2S, hydrogen sulfide] as the compound, how does the “level in the air that can lead to negative health effects (headaches, breathing problems in asthma)” value (people; exposure in the air) read?
Answer: 2 ppm

Question: What about the “level immediately dangerous to life and health” value (people; exposure) of the same compound?
Answer: 100 ppm

Question: For C1COCCN1.COc1ccc(P(=S)(S)N2CCOCC2)cc1 (stereo not drawn) [GYY-4137], which “growth of lettuce plants” value (lettuce plants) is on record?
Answer: increased the growth

Question: And the “growth of radish plants” value (radish; in vivo)?
Answer: increased the growth

Question: What about the “harvest yield of radishes” value (radish; milligram loadings) of the same compound?
Answer: doubled

Question: What about the “growth of pea plants” value (peas) of the same compound?
Answer: increased the growth

Question: What does the source list for CCCCOP(=S)(S)OCCCC [dibutyldithiophosphate]?
Answer: increase in harvest yield of soybeans (soybeans): 4.4%; number of pods, plant weight and total pod weight (pea plants; 10 mg per plant, potassium salt, 88 days): statistically significant increase; increase in number of pods (pea plants; [7]): 55%; increase in plant weight (pea plants; [7]): 46%; increase in total pod weight (pea plants; [7]): 45%; germination compared to the control plants (pea plants; 150 mg and 500 mg, potassium salt): reduction in germination; number of plants germinating (pea plants; 150 mg, 25 seeds planted per dosing): 6 plants; germination of seeds (pea plants; 500 mg): None of the seeds; heights of corn plants (corn plants; in vivo): Little statistically significant difference; weight of corn plants (corn plants; in vivo): improvements in weights; weight of corn plants (significance) (corn plants; in vivo): statistically significant improvements
